Reference: paper PMC3399817 (PLoS ONE, 2012)

Assays:
Experiment in all cases: KINOMEscan
Type in all cases: binding
[1] = molecular target: T1, STK33 (Homo sapiens, UniProt Q9BYT3); conditions: STK33, 1 uM
T1 construct: purchased Ambit KINOMEscan (DiscoverX)
Outline: (§1)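 A binding-competition profile was run with every compound fixed at 1 μM; hits were kinases showing inhibited substrate binding.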

[2] = molecular target: T2, TLK1 (Homo sapiens, UniProt Q9UKI8); conditions: TLK1, 1 uM
T2 construct: purchased Ambit KINOMEscan (DiscoverX)
Outline: as §1

[3] = molecular target: T3, PIM2 (Homo sapiens, UniProt Q9P1W9); conditions: PIM2, 1 uM
T3 construct: purchased Ambit KINOMEscan (DiscoverX)
Outline: as §1

[4] = molecular target: T4, CTK (Homo sapiens, UniProt P42679); conditions: 1 uM
T4 construct: purchased Ambit KINOMEscan (DiscoverX)
Outline: as §1

[5] = molecular target: T5, p38-alpha (Homo sapiens, UniProt Q16539); conditions: 1 uM
T5 construct: purchased Ambit KINOMEscan (DiscoverX)
Outline: as §1

[6] = molecular target: T6, PLK3 (Homo sapiens, UniProt Q9H4B4); conditions: PLK3, 1 uM
T6 construct: purchased Ambit KINOMEscan (DiscoverX)
Outline: as §1

[7] = molecular target: T7, PIP5K1A (Homo sapiens, UniProt Q99755); conditions: 1 uM
T7 construct: purchased Ambit KINOMEscan (DiscoverX)
Outline: as §1

[8] = molecular target: T8, FLT4 (Homo sapiens, UniProt P35916); conditions: FLT4, 1 uM
T8 construct: purchased Ambit KINOMEscan (DiscoverX)
Outline: as §1

[9] = molecular target: T9, ITK (Homo sapiens, UniProt Q08881); conditions: 1 uM
T9 construct: purchased Ambit KINOMEscan (DiscoverX)
Outline: as §1

[10] = molecular target: T10, MKNK1 (Homo sapiens, UniProt Q9BUB5); conditions: MKNK1, 1 uM
T10 construct: purchased Ambit KINOMEscan (DiscoverX)
Outline: as §1

[11] = molecular target: T11, KIT(V559D) (Homo sapiens, UniProt P10721, V559D); conditions: 1 uM
T11 construct: purchased Ambit KINOMEscan (DiscoverX)
Outline: as §1

[12] = molecular target: T12, CLK2 (Homo sapiens, UniProt P49760); conditions: CLK2, 1 uM
T12 construct: purchased Ambit KINOMEscan (DiscoverX)
Outline: as §1

[13] = molecular target: T13, JNK2 (Homo sapiens, UniProt P45984); conditions: JNK2, 1 uM
T13 construct: purchased Ambit KINOMEscan (DiscoverX)
Outline: as §1

[14] = molecular target: T14, PLK2 (Homo sapiens, UniProt Q9NYY3); conditions: PLK2, 1 uM
T14 construct: purchased Ambit KINOMEscan (DiscoverX)
Outline: as §1

[15] = molecular target: T15, CDK2 (Homo sapiens, UniProt P24941); conditions: CDK2, 1 uM
T15 construct: purchased Ambit KINOMEscan (DiscoverX)
Outline: as §1

[16] = molecular target: T16, TIE2 (Homo sapiens, UniProt Q02763); conditions: TIE2, 1 uM
T16 construct: purchased Ambit KINOMEscan (DiscoverX)
Outline: as §1

[17] = molecular target: T17, CAMK2D (Homo sapiens, UniProt Q13557); conditions: 1 uM
T17 construct: purchased Ambit KINOMEscan (DiscoverX)
Outline: as §1

[18] = molecular target: T18, CDK3 (Homo sapiens, UniProt Q00526); conditions: CDK3, 1 uM
T18 construct: purchased Ambit KINOMEscan (DiscoverX)
Outline: as §1

[19] = molecular target: T19, LYN (Homo sapiens, UniProt P07948); conditions: 1 uM
T19 construct: purchased Ambit KINOMEscan (DiscoverX)
Outline: as §1

[20] = molecular target: T20, AXL (Homo sapiens, UniProt P30530); conditions: 1 uM
T20 construct: purchased Ambit KINOMEscan (DiscoverX)
Outline: as §1

[21] = molecular target: T21, LOK (Homo sapiens, UniProt O94804); conditions: 1 uM
T21 construct: purchased Ambit KINOMEscan (DiscoverX)
Outline: as §1

[22] = molecular target: T22, ABL1(F317I)-nonphosphorylated (Homo sapiens, UniProt P00519, F317I); conditions: 1 uM
T22 construct: purchased Ambit KINOMEscan (DiscoverX)
Outline: as §1

[23] = molecular target: T23, TNK2 (Homo sapiens, UniProt Q07912); conditions: TNK2, 1 uM
T23 construct: purchased Ambit KINOMEscan (DiscoverX)
Outline: as §1

[24] = molecular target: T24, DMPK (Homo sapiens, UniProt Q09013); conditions: 1 uM
T24 construct: purchased Ambit KINOMEscan (DiscoverX)
Outline: as §1

[25] = molecular target: T25, FLT3(N841I) (Homo sapiens, UniProt P36888, N841I); conditions: 1 uM
T25 construct: purchased Ambit KINOMEscan (DiscoverX)
Outline: as §1

[26] = molecular target: T26, ABL1(M351T)-phosphorylated (Homo sapiens, UniProt P00519, M351T); conditions: 1 uM
T26 construct: purchased Ambit KINOMEscan (DiscoverX)
Outline: as §1

[27] = molecular target: T27, MLK2 (Homo sapiens, UniProt Q02779); conditions: MLK2, 1 uM
T27 construct: purchased Ambit KINOMEscan (DiscoverX)
Outline: as §1

[28] = molecular target: T28, MST4 (Homo sapiens, UniProt Q9P289); conditions: MST4, 1 uM
T28 construct: purchased Ambit KINOMEscan (DiscoverX)
Outline: as §1

[29] = molecular target: T29, CSNK1G1 (Homo sapiens, UniProt Q9HCP0); conditions: CSNK1G1, 1 uM
T29 construct: purchased Ambit KINOMEscan (DiscoverX)
Outline: as §1

[30] = molecular target: T30, BRSK1 (Homo sapiens, UniProt Q8TDC3); conditions: BRSK1, 1 uM
T30 construct: purchased Ambit KINOMEscan (DiscoverX)
Outline: as §1

[31] = molecular target: T31, ANKK1 (Homo sapiens, UniProt Q8NFD2); conditions: ANKK1, 1 uM
T31 construct: purchased Ambit KINOMEscan (DiscoverX)
Outline: as §1

[32] = molecular target: T32, PKMYT1 (Homo sapiens, UniProt Q99640); conditions: PKMYT1, 1 uM
T32 construct: purchased Ambit KINOMEscan (DiscoverX)
Outline: as §1

[33] = molecular target: T33, TNNI3K (Homo sapiens, UniProt Q59H18); conditions: 1 uM
T33 construct: purchased Ambit KINOMEscan (DiscoverX)
Outline: as §1

[34] = molecular target: T34, EGFR(L747-T751del,Sins) (Homo sapiens, UniProt P00533, DEL747-750/T751S); conditions: 1 uM
T34 construct: purchased Ambit KINOMEscan (DiscoverX)
Outline: as §1

[35] = molecular target: T35, MAP3K4 (Homo sapiens, UniProt Q9Y6R4); conditions: MAP3K4, 1 uM
T35 construct: purchased Ambit KINOMEscan (DiscoverX)
Outline: as §1

[36] = molecular target: T36, EPHA4 (Homo sapiens, UniProt P54764); conditions: EPHA4, 1 uM
T36 construct: purchased Ambit KINOMEscan (DiscoverX)
Outline: as §1

[37] = molecular target: T37, PIK3CG (Homo sapiens, UniProt P48736); conditions: 1 uM
T37 construct: purchased Ambit KINOMEscan (DiscoverX)
Outline: as §1

[38] = molecular target: T38, TYK2(JH2domain-pseudokinase) (Homo sapiens, UniProt P29597); conditions: 1 uM
T38 construct: TYK2(JH2domain-pseudokinase); purchased Ambit KINOMEscan (DiscoverX)
Outline: as §1

[39] = molecular target: T39, PRKG2 (Homo sapiens, UniProt Q13237); conditions: PRKG2, 1 uM
T39 construct: purchased Ambit KINOMEscan (DiscoverX)
Outline: as §1

T34 sequence (P00533 with tags, fused parts or gaps DEL747-750/T751S limits assumed): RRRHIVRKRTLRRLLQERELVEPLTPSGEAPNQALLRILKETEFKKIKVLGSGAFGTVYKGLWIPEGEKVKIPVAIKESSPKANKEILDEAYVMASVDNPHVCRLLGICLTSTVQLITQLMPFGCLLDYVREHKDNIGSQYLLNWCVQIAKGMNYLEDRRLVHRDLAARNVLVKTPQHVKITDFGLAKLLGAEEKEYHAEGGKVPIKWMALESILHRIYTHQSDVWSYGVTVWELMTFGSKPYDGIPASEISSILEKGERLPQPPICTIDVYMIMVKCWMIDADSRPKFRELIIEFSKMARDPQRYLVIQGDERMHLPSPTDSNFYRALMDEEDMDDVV
T14 sequence (Q9NYY3 whole entry): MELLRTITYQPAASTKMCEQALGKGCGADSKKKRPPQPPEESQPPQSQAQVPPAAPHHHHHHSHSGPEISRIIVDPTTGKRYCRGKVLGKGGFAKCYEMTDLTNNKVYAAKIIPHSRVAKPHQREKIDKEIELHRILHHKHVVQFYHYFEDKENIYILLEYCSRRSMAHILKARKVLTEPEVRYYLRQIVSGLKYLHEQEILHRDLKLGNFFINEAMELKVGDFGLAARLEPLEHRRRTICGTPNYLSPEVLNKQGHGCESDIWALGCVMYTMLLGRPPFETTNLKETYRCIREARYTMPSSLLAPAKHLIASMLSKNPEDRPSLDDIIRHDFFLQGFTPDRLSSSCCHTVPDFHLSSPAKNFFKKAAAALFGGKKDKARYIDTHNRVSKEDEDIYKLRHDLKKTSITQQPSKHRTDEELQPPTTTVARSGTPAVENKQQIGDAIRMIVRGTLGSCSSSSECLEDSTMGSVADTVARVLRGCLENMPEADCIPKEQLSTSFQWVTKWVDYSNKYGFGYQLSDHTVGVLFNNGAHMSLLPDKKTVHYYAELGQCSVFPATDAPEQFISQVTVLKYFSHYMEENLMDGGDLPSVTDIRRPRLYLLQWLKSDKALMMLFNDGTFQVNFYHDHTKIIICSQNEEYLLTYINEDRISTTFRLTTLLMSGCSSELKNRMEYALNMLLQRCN
T21 sequence (O94804 whole entry): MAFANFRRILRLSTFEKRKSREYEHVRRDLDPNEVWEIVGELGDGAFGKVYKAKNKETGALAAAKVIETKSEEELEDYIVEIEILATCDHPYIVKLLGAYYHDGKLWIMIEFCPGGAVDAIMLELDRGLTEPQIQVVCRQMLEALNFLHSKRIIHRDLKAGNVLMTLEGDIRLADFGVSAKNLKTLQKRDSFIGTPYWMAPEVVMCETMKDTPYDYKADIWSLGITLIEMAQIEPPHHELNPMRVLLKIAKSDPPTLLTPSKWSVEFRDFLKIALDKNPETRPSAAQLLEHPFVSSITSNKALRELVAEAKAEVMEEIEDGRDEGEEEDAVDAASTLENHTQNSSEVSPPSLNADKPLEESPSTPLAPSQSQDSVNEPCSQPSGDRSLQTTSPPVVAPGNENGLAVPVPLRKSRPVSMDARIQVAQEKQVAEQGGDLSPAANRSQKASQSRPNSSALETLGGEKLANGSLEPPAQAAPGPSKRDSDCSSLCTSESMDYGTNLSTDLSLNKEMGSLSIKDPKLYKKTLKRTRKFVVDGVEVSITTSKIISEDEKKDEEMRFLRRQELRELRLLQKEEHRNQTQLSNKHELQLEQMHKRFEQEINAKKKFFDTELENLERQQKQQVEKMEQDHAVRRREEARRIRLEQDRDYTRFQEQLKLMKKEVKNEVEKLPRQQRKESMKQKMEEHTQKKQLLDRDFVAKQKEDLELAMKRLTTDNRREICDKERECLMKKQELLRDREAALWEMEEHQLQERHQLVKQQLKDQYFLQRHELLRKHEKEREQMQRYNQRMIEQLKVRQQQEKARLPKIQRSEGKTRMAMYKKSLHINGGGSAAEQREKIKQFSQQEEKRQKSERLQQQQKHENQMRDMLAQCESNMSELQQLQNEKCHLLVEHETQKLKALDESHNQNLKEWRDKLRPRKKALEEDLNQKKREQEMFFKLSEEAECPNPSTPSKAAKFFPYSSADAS
T29 sequence (Q9HCP0 whole entry): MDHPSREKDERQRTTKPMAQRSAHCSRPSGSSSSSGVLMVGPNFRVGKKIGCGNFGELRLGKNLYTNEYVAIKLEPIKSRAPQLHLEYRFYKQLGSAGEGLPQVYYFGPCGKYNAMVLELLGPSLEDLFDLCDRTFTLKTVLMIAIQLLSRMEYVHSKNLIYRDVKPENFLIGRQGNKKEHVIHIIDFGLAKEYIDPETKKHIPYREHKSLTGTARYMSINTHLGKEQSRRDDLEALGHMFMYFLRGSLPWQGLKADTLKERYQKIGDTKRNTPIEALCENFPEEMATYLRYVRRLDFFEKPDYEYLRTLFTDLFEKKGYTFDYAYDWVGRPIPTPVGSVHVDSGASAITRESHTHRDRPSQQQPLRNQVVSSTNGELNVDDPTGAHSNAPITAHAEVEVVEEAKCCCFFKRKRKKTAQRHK
T16 sequence (Q02763 23-1124): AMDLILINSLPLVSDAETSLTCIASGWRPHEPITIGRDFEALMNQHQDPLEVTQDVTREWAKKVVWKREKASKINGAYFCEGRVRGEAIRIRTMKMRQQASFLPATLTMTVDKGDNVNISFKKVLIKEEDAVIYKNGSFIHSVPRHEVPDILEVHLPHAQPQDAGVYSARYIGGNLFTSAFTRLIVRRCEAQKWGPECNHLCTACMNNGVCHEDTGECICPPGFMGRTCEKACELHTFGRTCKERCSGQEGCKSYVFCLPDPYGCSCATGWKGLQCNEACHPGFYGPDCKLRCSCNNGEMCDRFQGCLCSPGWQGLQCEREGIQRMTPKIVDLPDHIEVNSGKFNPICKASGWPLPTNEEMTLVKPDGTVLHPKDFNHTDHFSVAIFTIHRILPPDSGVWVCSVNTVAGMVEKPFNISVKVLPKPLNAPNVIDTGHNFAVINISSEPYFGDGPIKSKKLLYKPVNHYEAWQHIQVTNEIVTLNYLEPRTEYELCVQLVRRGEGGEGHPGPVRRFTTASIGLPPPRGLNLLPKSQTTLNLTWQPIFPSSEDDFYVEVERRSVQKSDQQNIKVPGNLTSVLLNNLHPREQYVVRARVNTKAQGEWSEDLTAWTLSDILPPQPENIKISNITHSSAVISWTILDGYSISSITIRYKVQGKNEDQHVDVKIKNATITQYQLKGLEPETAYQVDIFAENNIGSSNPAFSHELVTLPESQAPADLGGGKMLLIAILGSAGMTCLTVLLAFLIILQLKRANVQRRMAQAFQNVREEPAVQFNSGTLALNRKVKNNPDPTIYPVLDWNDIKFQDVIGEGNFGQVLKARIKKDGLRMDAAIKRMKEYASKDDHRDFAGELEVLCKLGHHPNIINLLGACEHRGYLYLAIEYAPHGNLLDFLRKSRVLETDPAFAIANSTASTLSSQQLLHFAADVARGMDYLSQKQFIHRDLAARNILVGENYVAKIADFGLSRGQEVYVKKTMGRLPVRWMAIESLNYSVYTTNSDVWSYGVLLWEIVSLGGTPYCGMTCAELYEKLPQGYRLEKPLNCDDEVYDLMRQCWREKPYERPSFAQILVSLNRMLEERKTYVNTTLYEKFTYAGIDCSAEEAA
T1 sequence (Q9BYT3 whole entry): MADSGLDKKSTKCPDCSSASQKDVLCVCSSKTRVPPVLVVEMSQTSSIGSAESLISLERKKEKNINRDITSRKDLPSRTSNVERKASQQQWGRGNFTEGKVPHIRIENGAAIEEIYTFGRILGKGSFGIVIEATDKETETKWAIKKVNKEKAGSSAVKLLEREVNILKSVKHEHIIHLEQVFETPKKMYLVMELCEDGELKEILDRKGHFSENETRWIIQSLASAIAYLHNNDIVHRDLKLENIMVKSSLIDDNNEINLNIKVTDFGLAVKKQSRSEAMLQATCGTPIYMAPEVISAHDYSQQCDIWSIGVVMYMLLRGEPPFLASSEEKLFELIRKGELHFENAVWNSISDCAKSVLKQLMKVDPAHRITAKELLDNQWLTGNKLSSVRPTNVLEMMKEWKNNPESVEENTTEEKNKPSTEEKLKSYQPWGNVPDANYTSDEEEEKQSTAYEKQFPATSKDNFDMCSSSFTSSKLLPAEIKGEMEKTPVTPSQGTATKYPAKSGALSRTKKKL
T31 sequence (Q8NFD2 whole entry): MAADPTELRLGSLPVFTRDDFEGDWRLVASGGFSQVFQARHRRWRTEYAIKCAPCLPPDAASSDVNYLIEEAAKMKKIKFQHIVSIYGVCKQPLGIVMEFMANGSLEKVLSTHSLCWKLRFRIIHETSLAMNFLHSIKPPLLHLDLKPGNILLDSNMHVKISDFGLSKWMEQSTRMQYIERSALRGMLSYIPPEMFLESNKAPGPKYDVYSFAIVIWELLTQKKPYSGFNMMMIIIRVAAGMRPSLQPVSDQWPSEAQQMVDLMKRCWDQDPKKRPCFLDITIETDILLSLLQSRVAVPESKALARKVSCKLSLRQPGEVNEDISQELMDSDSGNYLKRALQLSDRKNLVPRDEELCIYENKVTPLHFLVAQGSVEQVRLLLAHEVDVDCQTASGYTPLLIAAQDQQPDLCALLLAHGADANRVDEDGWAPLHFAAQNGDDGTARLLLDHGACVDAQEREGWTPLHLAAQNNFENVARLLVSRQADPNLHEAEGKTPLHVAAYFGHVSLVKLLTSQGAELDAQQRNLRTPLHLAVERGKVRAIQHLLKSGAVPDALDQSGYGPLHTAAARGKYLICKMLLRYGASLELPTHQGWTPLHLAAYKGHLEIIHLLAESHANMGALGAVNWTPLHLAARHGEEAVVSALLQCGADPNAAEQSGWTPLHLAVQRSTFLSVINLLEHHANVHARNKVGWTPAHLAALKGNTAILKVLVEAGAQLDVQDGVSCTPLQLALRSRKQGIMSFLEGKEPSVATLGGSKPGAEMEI

Compound | % binding compared to no inhibitor control [1] [%] | % binding compared to no inhibitor control [2] [%] | % binding compared to no inhibitor control [3] [%] | % binding compared to no inhibitor control [4] [%] | % binding compared to no inhibitor control [5] [%] | % binding compared to no inhibitor control [6] [%] | % binding compared to no inhibitor control [7] [%] | % binding compared to no inhibitor control [8] [%] | % binding compared to no inhibitor control [9] [%] | % binding compared to no inhibitor control [10] [%] | % binding compared to no inhibitor control [11] [%] | % binding compared to no inhibitor control [12] [%] | % binding compared to no inhibitor control [13] [%] | % binding compared to no inhibitor control [14] [%] | % binding compared to no inhibitor control [15] [%] | % binding compared to no inhibitor control [16] [%] | % binding compared to no inhibitor control [17] [%] | % binding compared to no inhibitor control [18] [%] | % binding compared to no inhibitor control [19] [%] | % binding compared to no inhibitor control [20] [%] | other results
COc1ccccc1Nc1nc(-c2ccc(OC)c(OC)c2)cc2nccn12 [BAY derivative 6] | 100 | 57 | 91 | 98 | 95 | 100 | 86 | 86 | 100 | 72 | 54 | 63 | 100 | 100 | 100 | 100 | 100 | 94 | 96 | 89 | % binding compared to no inhibitor control [21]: 53%; % binding compared to no inhibitor control [22]: 100%; % binding compared to no inhibitor control [23]: 53%; % binding compared to no inhibitor control [24]: 100%; % binding compared to no inhibitor control [25]: 53%; % binding compared to no inhibitor control [26]: 92%; % binding compared to no inhibitor control [27]: 100%; % binding compared to no inhibitor control [28]: 72%; % binding compared to no inhibitor control [29]: 94%; % binding compared to no inhibitor control [30]: 100%; % binding compared to no inhibitor control [31]: 100%; % binding compared to no inhibitor control [32]: 95%; % binding compared to no inhibitor control [33]: 100%; % binding compared to no inhibitor control [34]: 89%; % binding compared to no inhibitor control [35]: 99%; % binding compared to no inhibitor control [36]: 92%; % binding compared to no inhibitor control [37]: 100%; % binding compared to no inhibitor control [38]: 37%; % binding compared to no inhibitor control [39]: 100%
COc1ccc(-c2cc3nccn3c(Nc3ncccc3C(N)=O)n2)cc1OC.Cl.Cl [BAY61-3606, 2-[7-(3,4-dimethoxyphenyl)-imidazo [1,2-c]pyrimidin-5-ylamino] nicotinamide dihydrochloride, reference compound] | 87 | 89 | 87 | 44 | 100 | 37 | 64 | 100 | 100 | 52 | 3 | 12 | 100 | 50 | 86 | 100 | 72 | 89 | 100 | 92 | % binding compared to no inhibitor control [21]: 83%; % binding compared to no inhibitor control [22]: 100%; % binding compared to no inhibitor control [23]: 96%; % binding compared to no inhibitor control [24]: 72%; % binding compared to no inhibitor control [25]: 1.5%; % binding compared to no inhibitor control [26]: 81%; % binding compared to no inhibitor control [27]: 91%; % binding compared to no inhibitor control [28]: 57%; % binding compared to no inhibitor control [29]: 84%; % binding compared to no inhibitor control [30]: 82%; % binding compared to no inhibitor control [31]: 21%; % binding compared to no inhibitor control [32]: 88%; % binding compared to no inhibitor control [33]: 100%; % binding compared to no inhibitor control [34]: 80%; % binding compared to no inhibitor control [35]: 100%; % binding compared to no inhibitor control [36]: 91%; % binding compared to no inhibitor control [37]: 26%; % binding compared to no inhibitor control [38]: 9.2%; % binding compared to no inhibitor control [39]: 70%
